Data reported in ChEMBL document CHEMBL5608246, “Membrane-Targeting Amphiphilic Honokiol Derivatives Containing an Oxazole Moiety as Potential Antibacterials against Methicillin-Resistant Staphylococcus aureus” (J Med Chem, 2024).
Active and inactive are the calls of the source. The calls are words filed in the database; no cut-off is given here.

Columns and labels:
[1] = test system: Cell membrane; experiment: Induction of membrane disruption in methicillin resistant Staphylococcus aureus 20 assessed as viable cells with intact membrane at 16 ug/ml incubated for 2 hrs by SYTO9/PI staining based flow cytometry analysis (reference value: 98.7%); format: cell membranes; details: dose 16.0 µg/ml
[2] = test system: Staphylococcus aureus; experiment: Antibacterial activity against methicillin resistant Staphylococcus aureus M16 incubated for 16 to 18 hrs by broth dilution method; format: functional; details: time 16-18 hrs
[3] = test system: Staphylococcus aureus; experiment: Antibacterial activity against methicillin resistant Staphylococcus aureus M17 incubated for 16 to 18 hrs by broth dilution method; format: functional; details: time 16-18 hrs
[4] = test system: Staphylococcus aureus; experiment: Antibacterial activity against methicillin resistant Staphylococcus aureus M21 incubated for 16 to 18 hrs by broth dilution method; format: functional; details: time 16-18 hrs
[5] = test system: Staphylococcus aureus; experiment: Antibacterial activity against methicillin resistant Staphylococcus aureus M23 incubated for 16 to 18 hrs by broth dilution method; format: functional; details: time 16-18 hrs
[6] = test system: Escherichia coli; experiment: Antibacterial activity against Escherichia coli ATCC 25922 incubated for 16 to 18 hrs by broth dilution method; format: functional; details: time 16-18 hrs
[7] = Hemolytic activity in sheep RBC incubated for 1 hr; format: toxicity, cell-based, Ovis aries, Erythrocyte; details: sheep red blood cells (erythrocytes)
[8] = Selectivity index, ratio of HC50 for sheep RBC to MIC for Staphylococcus aureus ATCC 29213; format: toxicity; details: sheep red blood cells, read-out: Selectivity Index
[9] = test system: Cell membrane; experiment: Induction of membrane disruption in methicillin resistant Staphylococcus aureus 20 assessed as membrane rupture at 16 times MIC incubated for 4 hrs by SEM analysis
[10] = test system: Cell membrane; experiment: Induction of membrane permeability in methicillin resistant Staphylococcus aureus 20 assessed as broken cell membrane by measuring increased fluorescence intensity at 32 ug/ml measured at 2 mins interval over 20 mins by SYTOX green staining based assay; format: cell membranes; details: dose 32.0 µg/ml
[11] = test system: Staphylococcus aureus; experiment: Antibacterial activity against methicillin resistant Staphylococcus aureus 20 incubated for 16 to 18 hrs in presence of 32 ug/ml cardiolipin by checkerboard broth dilution method; format: functional; details: time 16-18 hrs
[12] = test system: Staphylococcus aureus; experiment: Antibacterial activity against methicillin resistant Staphylococcus aureus 20 incubated for 16 to 18 hrs in presence of 2 to 64 ug/ml phosphatidylethanolamine by checkerboard broth dilution method; format: functional, organism-based; details: time 16-18 hrs
[13] = test system: Cell membrane; experiment: Induction of membrane disruption in methicillin resistant Staphylococcus aureus 20 assessed as intracellular protein leakage incubated for 4 hrs by microspectrophotometer analysis; format: cell membranes; details: dose 2-16 µg/ml
[14] = test system: Staphylococcus aureus; experiment: Upregulation of cidA gene expression in methicillin resistant Staphylococcus aureus N315 at 4 ug/ml incubated for 4 hrs by RNA-sequencing analysis; format: functional; details: dose 4.0 µg/ml
[15] = test system: Staphylococcus aureus; experiment: Upregulation of cwrA gene expression in methicillin resistant Staphylococcus aureus N315 at 4 ug/ml incubated for 4 hrs by RNA-sequencing analysis; format: functional; details: dose 4.0 µg/ml
[16] = test system: Staphylococcus aureus; experiment: Downregulation of srtA gene expression in methicillin resistant Staphylococcus aureus N315 at 4 ug/ml incubated for 4 hrs by RNA-sequencing analysis; format: functional; details: dose 4.0 µg/ml
[17] = test system: Staphylococcus aureus; experiment: Inhibition of enzyme activity in methicillin resistant Staphylococcus aureus N315 at 4 ug/ml incubated for 4 hrs by RNA-sequencing analysis; format: functional, organism-based; details: dose 4.0 µg/ml
[18] = test system: Staphylococcus aureus; experiment: Inhibition of DNA replication in methicillin resistant Staphylococcus aureus N315 at 4 ug/ml incubated for 4 hrs by RNA-sequencing analysis; format: functional, organism-based; details: dose 4.0 µg/ml
[19] = test system: Staphylococcus aureus; experiment: Inhibition of transcription in methicillin resistant Staphylococcus aureus N315 at 4 ug/ml incubated for 4 hrs by RNA-sequencing analysis; format: functional, organism-based; details: dose 4.0 µg/ml
[20] = test system: Staphylococcus aureus; experiment: Inhibition of protein synthesis in methicillin resistant Staphylococcus aureus N315 at 4 ug/ml incubated for 4 hrs by RNA-sequencing analysis; format: functional, organism-based; details: dose 4.0 µg/ml
[21] = test system: Staphylococcus aureus; experiment: Disruption of redox process in methicillin resistant Staphylococcus aureus N315 at 4 ug/ml incubated for 4 hrs by RNA-sequencing analysis; format: functional, organism-based; details: dose 4.0 µg/ml
[22] = test system: Staphylococcus aureus; experiment: Inhibition of lysine synthesis in methicillin resistant Staphylococcus aureus N315 at 4 ug/ml incubated for 4 hrs by RNA-sequencing analysis; format: functional, organism-based; details: dose 4.0 µg/ml
[23] = test system: Staphylococcus aureus; experiment: Inhibition of methionine synthesis in methicillin resistant Staphylococcus aureus N315 at 4 ug/ml incubated for 4 hrs by RNA-sequencing analysis; format: functional, organism-based; details: dose 4.0 µg/ml
[24] = Cytotoxicity against human L02 cells assessed as survival rate at 16 ug/ml incubated for 24 hrs by CCK8 assay; format: toxicity, cell-based; details: at 16 µg/mL, read-out: Survival
[25] = Toxicity in Kunming mouse assessed as change in hemoglobin level at 20 mg/kg, sc measured after 24 hrs; format: organism-based; details: in vivo
[26] = Toxicity in Kunming mouse assessed as change in mean corpuscular volume at 20 mg/kg, sc measured after 24 hrs; format: organism-based; details: in vivo
[27] = Toxicity in Kunming mouse assessed as change in platelet count at 20 mg/kg, sc measured after 24 hrs; format: organism-based; details: in vivo
[28] = Toxicity in Kunming mouse assessed as change in urea level at 20 mg/kg, sc measured after 24 hrs; format: organism-based; details: in vivo
[29] = Toxicity in Kunming mouse assessed as change in creatinine level at 20 mg/kg, sc measured after 24 hrs; format: organism-based; details: in vivo
[30] = Toxicity in Kunming mouse assessed as spleen abnormalities at 10 mg/kg, sc measured after 24 hrs; format: organism-based; details: in vivo
[31] = Toxicity in Kunming mouse assessed as lung abnormalities at 10 mg/kg, sc measured after 24 hrs; format: organism-based; details: in vivo
[32] = test system: Staphylococcus aureus; experiment: Antibacterial activity against methicillin resistant Staphylococcus aureus 20 infected in Kunming mouse skin abscess model assessed as reduction in abscess size at 5 mg/kg, sc measured after 2 hrs; format: functional, organism-based
[33] = test system: Staphylococcus aureus; experiment: Antibacterial activity against methicillin resistant Staphylococcus aureus 20 infected in Kunming mouse skin abscess model assessed as reduction in inflammatory cell infiltration in subcutaneous layer at 10 mg/kg, sc measured after 2 hrs; format: functional, organism-based
[34] = test system: Staphylococcus aureus; experiment: Antibacterial activity against methicillin resistant Staphylococcus aureus 20 infected in Kunming mouse skin abscess model assessed as reduction in bacterial load at 10 mg/kg, sc measured after 2 hrs; format: functional; set-up: scale not given: the % may be the effect or the level left
[35] = test system: Staphylococcus aureus; experiment: Antibacterial activity against methicillin resistant Staphylococcus aureus 20 infected in Kunming mouse skin abscess model assessed as reduction in TNF-alpha level at 5 to 10 mg/kg, sc measured after 2 hrs by ELISA; format: functional, organism-based; details: dose 5-10 mg/kg
[36] = test system: Staphylococcus aureus; experiment: Antibacterial activity against methicillin resistant Staphylococcus aureus 20 infected in Kunming mouse skin abscess model assessed as reduction in IL-6 level at 5 to 10 mg/kg, sc measured after 2 hrs by ELISA; format: functional, organism-based; details: dose 5-10 mg/kg
[37] = Toxicity in Kunming mouse skin abscess model infected with methicillin resistant Staphylococcus aureus assessed as kidney damage at 5 to 10 mg/kg, sc measured after 2 hrs by H and E staining based assay; format: organism-based; details: in vivo, dose 5-10 mg/kg
[38] = test system: Cell membrane; experiment: Induction of membrane disruption in methicillin resistant Staphylococcus aureus 20 assessed as viable cells with intact membrane at 32 ug/ml incubated for 2 hrs by SYTO9/PI staining based flow cytometry analysis (reference value: 98.7%); format: cell membranes; details: dose 32.0 µg/ml
[39] = test system: Cell membrane; experiment: Induction of membrane disruption in methicillin resistant Staphylococcus aureus 20 assessed as viable cells with intact membrane at 128 ug/ml incubated for 2 hrs by SYTO9/PI staining based flow cytometry analysis (reference value: 98.7%); format: cell membranes; details: dose 128.0 µg/ml
[40] = test system: Cell membrane; experiment: Induction of membrane disruption in methicillin resistant Staphylococcus aureus 20 assessed as increase in red fluorescence signal incubated for 2 hrs by SYTO9/PI staining based flow cytometry analysis; details: dose 8-128 µg/ml

Question: With `C=CCc1cc(-c2ccc(OCCC[N+](C)(C)CC(=O)NCCCC)c(CC=C)c2)c2oc(-c3c(Cl)cccc3Cl)nc2c1.[Br-]` as the compound, how does the Activity [1] read?
Answer: 0.17%

Question: What about the MIC [2] of the same compound?
Answer: 2 µg/mL

Question: And the MIC [3]?
Answer: 2 µg/mL

Question: And the MIC [4]?
Answer: 4 µg/mL

Question: And the MIC [5]?
Answer: 4 µg/mL

Question: What about the MIC [6] of the same compound?
Answer: 128 µg/mL

Question: What about the HC50 at 1 h [7] of the same compound?
Answer: 218 µg/mL

Question: What about the selectivity ratio [8] of the same compound?
Answer: 54.5

Question: What about the Activity [9] of the same compound?
Answer: Active

Question: And the Activity [10]?
Answer: Active

Question: And the MIC [11]?
Answer: 32 µg/mL

Question: And the Activity [12]?
Answer: Active

Question: And the Activity [13]?
Answer: Dose-Dependent Effect

Question: And the Activity [14]?
Answer: Active

Question: What about the Activity [15] of the same compound?
Answer: Active

Question: And the Activity [16]?
Answer: Active

Question: And the Activity [17]?
Answer: Active

Question: And the inhibition [18]?
Answer: Active

Question: What about the inhibition [19] of the same compound?
Answer: Active

Question: What about the inhibition [20] of the same compound?
Answer: Active

Question: And the Activity [21]?
Answer: Active

Question: And the inhibition [22]?
Answer: Active

Question: What about the inhibition [23] of the same compound?
Answer: Active

Question: And the viability at 24 h, 16 ug/ml [24]?
Answer: 75%

Question: What about the Activity [25] of the same compound?
Answer: Non-Toxic

Question: What about the Activity [26] of the same compound?
Answer: Non-Toxic

Question: And the Activity [27]?
Answer: Non-Toxic

Question: And the Activity [28]?
Answer: Non-Toxic

Question: And the Activity [29]?
Answer: Non-Toxic

Question: And the Activity [30]?
Answer: Non-Toxic

Question: And the Activity [31]?
Answer: Non-Toxic

Question: What about the Activity [32] of the same compound?
Answer: Active

Question: What about the Activity [33] of the same compound?
Answer: Active

Question: What about the Activity [34] of the same compound?
Answer: 96.63%

Question: What about the Activity [35] of the same compound?
Answer: Active

Question: What about the Activity [36] of the same compound?
Answer: Active

Question: And the Activity [37]?
Answer: Non-Toxic

Question: And the Activity [38]?
Answer: 0.33%

Question: What about the Activity [39] of the same compound?
Answer: 0%

Question: What about the Activity [40] of the same compound?
Answer: Dose-Dependent Effect
